Test results: the kinase profiling compilation of Christmann-Franck et al. (2016)
“And” between values parts separate entries of the source, which are not always exact repeats. Equal entries are not always repeated.

What was measured:
Assay in all cases: Caliper, Mobility shift assay off-chip
AURKC (human) = AURKC (human) (UniProt Q9UQB9)
BLK (human) = BLK (human) (UniProt P51451)
CAMK2A (human) = CAMK2A (human) (UniProt Q9UQM7)
CDC42BPB (human) = CDC42BPB (human) (UniProt Q9Y5S2)
CHEK2 (human) = CHEK2 (human) (UniProt O96017)
CLK2 (human) = CLK2 (human) (UniProt P49760)
CLK3 (human) = CLK3 (human) (UniProt P49761)
CSNK1D (human) = CSNK1D (human) (UniProt P48730)
CSNK2A2 (human) = CSNK2A2 (human) (UniProt P19784)
DDR1 (human) = DDR1 (human) (UniProt Q08345)
DYRK3 (human) = DYRK3 (human) (UniProt O43781)
EPHA1 (human) = EPHA1 (human) (UniProt P21709)
EPHA8 (human) = EPHA8 (human) (UniProt P29322)
FGFR2 (human) = FGFR2 (human) (UniProt P21802)
HCK (human) = HCK (human) (UniProt P08631)
MAPK1 (human) = MAPK1 (human) (UniProt P28482)
MAPKAPK3 (human) = MAPKAPK3 (human) (UniProt Q16644)
MARK4 (human) = MARK4 (human) (UniProt Q96L34)
MINK1 (human) = MINK1 (human) (UniProt Q8N4C8)
MST4 (human) = MST4 (human) (UniProt Q9P289)
MUSK (human) = MUSK (human) (UniProt O15146)
NTRK2 (human) = NTRK2 (human) (UniProt Q16620)
NUAK1 (human) = NUAK1 (human) (UniProt O60285)
PDGFRB (human) = PDGFRB (human) (UniProt P09619)
PRKAA2 (human) = PRKAA2 (human) (UniProt P54646)
PRKACG (human) = PRKACG (human) (UniProt P22612)
PRKCE (human) = PRKCE (human) (UniProt Q02156)
PRKCI (human) = PRKCI (human) (UniProt P41743)
PRKCZ (human) = PRKCZ (human) (UniProt Q05513)
SIK1 (human) = SIK1 (human) (UniProt P57059)
SPHK2 (human) = SPHK2 (human) (UniProt Q9NRA0)
STK24 (human) = STK24 (human) (UniProt Q9Y6E0)
TAB1 (human) = TAB1 (human) (UniProt Q15750)
MYLK2 (human) = MYLK2 (human) (UniProt Q9H1R3)

Chain of AURKC (human) (Q9UQB9 whole entry, looked up): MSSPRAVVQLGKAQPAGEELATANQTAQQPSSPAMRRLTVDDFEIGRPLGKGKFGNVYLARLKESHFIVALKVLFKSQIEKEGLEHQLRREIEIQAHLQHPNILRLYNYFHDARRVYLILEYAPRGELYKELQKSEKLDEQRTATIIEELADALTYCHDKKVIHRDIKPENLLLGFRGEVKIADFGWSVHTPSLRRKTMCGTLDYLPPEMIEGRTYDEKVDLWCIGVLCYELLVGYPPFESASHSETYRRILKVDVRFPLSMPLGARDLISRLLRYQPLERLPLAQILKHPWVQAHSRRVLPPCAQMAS
Chain of EPHA1 (human) (P21709 whole entry, looked up): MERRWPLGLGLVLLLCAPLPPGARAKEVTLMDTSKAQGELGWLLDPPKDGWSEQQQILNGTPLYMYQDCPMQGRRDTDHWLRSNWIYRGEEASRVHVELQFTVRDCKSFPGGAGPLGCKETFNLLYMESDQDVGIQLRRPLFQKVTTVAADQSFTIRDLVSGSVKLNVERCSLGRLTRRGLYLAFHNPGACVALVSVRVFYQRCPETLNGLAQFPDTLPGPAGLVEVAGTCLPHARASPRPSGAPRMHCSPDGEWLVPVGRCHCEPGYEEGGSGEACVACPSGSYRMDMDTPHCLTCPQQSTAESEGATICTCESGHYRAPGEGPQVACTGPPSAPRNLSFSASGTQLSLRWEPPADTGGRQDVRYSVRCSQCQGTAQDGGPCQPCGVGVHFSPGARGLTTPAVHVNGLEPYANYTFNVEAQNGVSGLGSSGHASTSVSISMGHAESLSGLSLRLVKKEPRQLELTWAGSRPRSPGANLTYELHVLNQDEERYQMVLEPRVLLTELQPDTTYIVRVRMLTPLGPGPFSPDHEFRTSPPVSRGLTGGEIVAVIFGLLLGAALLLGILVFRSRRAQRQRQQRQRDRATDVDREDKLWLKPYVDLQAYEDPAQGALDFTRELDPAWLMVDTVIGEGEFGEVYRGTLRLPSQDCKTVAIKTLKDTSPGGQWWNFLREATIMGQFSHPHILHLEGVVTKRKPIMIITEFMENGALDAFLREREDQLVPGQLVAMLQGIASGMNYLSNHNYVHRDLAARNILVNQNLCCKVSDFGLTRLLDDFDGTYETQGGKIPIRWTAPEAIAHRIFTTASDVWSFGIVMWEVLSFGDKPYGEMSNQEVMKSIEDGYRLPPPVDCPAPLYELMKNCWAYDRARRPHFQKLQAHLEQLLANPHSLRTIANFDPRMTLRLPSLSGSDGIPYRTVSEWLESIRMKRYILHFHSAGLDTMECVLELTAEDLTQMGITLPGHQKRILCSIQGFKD
Chain of MAPK1 (human) (P28482 whole entry, looked up): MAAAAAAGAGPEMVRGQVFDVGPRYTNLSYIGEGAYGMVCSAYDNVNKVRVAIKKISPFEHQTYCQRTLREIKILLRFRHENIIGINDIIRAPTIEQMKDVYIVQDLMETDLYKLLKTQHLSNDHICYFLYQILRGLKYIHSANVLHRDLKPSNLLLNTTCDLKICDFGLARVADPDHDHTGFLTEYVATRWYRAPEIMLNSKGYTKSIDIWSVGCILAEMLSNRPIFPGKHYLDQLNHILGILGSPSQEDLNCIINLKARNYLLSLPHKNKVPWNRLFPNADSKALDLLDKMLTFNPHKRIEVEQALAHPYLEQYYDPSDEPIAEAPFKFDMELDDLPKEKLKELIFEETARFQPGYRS
Chain of NTRK2 (human) (Q16620 whole entry, looked up): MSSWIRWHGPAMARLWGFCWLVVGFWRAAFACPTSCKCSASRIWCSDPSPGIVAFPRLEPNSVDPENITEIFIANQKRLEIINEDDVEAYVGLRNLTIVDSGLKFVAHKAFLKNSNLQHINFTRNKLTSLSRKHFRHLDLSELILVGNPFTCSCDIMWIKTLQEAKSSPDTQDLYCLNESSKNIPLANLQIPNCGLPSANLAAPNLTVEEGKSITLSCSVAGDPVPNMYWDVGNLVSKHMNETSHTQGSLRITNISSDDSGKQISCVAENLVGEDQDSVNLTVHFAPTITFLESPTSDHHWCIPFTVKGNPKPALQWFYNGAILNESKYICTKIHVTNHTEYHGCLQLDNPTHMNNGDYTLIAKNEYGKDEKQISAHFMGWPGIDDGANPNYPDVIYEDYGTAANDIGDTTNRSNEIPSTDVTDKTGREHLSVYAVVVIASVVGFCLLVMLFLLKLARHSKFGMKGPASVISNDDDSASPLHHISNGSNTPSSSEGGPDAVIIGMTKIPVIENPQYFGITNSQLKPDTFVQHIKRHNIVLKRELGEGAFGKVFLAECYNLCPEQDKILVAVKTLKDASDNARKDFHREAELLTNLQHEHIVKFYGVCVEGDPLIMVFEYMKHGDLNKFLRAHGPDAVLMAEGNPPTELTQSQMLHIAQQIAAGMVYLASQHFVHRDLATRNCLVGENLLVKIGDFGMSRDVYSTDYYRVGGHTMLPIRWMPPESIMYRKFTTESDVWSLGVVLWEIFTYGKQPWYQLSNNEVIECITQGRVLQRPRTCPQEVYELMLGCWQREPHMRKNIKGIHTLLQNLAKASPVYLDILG
Chain of PRKCZ (human) (Q05513 whole entry, looked up): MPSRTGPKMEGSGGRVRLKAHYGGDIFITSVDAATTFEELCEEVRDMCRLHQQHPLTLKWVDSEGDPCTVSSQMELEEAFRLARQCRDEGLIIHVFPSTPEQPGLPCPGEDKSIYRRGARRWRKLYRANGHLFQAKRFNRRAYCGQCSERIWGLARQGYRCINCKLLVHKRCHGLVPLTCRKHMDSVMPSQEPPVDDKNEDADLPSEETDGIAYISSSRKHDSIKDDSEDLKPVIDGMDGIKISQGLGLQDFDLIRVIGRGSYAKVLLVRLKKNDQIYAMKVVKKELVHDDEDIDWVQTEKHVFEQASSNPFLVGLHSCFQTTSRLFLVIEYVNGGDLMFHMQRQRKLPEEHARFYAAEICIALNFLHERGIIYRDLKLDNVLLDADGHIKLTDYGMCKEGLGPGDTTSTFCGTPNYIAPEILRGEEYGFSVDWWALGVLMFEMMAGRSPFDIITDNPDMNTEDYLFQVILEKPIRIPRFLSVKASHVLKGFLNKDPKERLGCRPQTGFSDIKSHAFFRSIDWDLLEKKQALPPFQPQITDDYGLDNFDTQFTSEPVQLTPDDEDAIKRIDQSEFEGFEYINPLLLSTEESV
Chain of MARK4 (human) (Q96L34 whole entry, looked up): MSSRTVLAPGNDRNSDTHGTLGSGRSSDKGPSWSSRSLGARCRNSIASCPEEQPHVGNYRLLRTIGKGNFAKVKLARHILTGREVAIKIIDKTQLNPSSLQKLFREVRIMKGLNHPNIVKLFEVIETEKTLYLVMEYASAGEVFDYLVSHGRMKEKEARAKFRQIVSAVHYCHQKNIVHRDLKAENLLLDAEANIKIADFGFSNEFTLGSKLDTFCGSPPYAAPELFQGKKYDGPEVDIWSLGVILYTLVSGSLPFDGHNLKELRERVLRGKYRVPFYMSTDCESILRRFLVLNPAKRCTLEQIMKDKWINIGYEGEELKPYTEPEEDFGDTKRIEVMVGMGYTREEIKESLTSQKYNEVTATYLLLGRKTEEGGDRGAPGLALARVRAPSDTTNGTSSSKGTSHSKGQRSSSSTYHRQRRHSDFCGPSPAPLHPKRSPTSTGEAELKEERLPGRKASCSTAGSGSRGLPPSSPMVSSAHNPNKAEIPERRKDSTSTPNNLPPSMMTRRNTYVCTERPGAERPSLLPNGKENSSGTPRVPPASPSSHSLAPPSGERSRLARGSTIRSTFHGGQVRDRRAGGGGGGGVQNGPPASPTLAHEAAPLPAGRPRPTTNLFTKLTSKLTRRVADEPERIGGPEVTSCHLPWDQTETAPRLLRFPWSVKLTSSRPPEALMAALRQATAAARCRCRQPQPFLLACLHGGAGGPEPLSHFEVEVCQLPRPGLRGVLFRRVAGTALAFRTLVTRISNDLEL
Chain of CLK3 (human) (P49761 whole entry, looked up): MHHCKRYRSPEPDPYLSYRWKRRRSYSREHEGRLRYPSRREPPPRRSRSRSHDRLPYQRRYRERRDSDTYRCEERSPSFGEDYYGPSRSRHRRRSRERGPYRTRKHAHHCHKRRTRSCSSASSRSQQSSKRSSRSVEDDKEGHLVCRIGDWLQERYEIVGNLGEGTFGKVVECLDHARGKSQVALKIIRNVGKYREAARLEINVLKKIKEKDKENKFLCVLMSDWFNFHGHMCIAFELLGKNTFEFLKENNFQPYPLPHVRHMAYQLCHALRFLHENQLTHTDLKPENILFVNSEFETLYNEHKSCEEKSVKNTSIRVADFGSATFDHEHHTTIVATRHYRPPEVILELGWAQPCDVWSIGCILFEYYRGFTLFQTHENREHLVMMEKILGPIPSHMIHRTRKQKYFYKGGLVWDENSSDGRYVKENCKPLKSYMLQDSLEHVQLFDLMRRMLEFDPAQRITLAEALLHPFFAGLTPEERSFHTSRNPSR
Chain of CSNK1D (human) (P48730 whole entry, looked up): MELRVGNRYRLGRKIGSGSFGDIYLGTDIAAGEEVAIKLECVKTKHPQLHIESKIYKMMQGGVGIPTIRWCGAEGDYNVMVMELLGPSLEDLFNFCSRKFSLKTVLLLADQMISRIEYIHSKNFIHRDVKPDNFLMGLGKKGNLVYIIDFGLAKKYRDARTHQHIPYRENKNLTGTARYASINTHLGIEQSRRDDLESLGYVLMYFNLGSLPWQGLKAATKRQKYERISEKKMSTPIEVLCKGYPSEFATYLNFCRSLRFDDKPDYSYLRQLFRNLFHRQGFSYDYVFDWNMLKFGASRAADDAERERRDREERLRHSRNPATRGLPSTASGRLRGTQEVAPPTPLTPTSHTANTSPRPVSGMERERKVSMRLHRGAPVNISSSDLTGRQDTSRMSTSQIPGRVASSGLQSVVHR

**Q.** Which results are given for `Cc1ccc(Nc2nccc(N(C)c3ccc4c(C)n(C)nc4c3)n2)cc1S(N)(=O)=O`?
**A.** inhibition (AURKC (human); compound 0.02 µM): -0.4%; inhibition (AURKC (human); compound 0.2 µM): 21.5%; inhibition (BLK (human); compound 0.02 µM): 7.7%; inhibition (BLK (human); compound 0.2 µM): 22.7%; inhibition (CAMK2A (human); compound 0.02 µM): 5.3%; inhibition (CAMK2A (human); compound 0.2 µM): 5.1%; inhibition (CDC42BPB (human); compound 0.02 µM): 1.8%; inhibition (CDC42BPB (human); compound 0.2 µM): 2.9%; inhibition (CHEK2 (human); compound 0.02 µM): 4.1%; inhibition (CHEK2 (human); compound 0.2 µM): 4.1%; inhibition (CLK2 (human); compound 0.02 µM): 6.2%; inhibition (CLK2 (human); compound 0.2 µM): 7.2%; inhibition (CLK3 (human); compound 0.02 µM): -3.9%; inhibition (CLK3 (human); compound 0.2 µM): 9.6%; inhibition (CSNK1D (human); compound 0.02 µM): -1.8% and -2.9%; inhibition (CSNK1D (human); compound 0.2 µM): -2.9% and -3.3%; inhibition (CSNK2A2 (human); compound 0.02 µM): -2.8%; inhibition (CSNK2A2 (human); compound 0.2 µM): -1.4%; inhibition (DDR1 (human); compound 0.02 µM): 19.6%; inhibition (DDR1 (human); compound 0.2 µM): 80.9%; inhibition (DYRK3 (human); compound 0.02 µM): -2.2%; inhibition (DYRK3 (human); compound 0.2 µM): -1.4%; inhibition (EPHA1 (human); compound 0.02 µM): -1.3%; inhibition (EPHA1 (human); compound 0.2 µM): 15.3%; inhibition (EPHA8 (human); compound 0.02 µM): -1.1%; inhibition (EPHA8 (human); compound 0.2 µM): 10.8%; inhibition (FGFR2 (human); compound 0.02 µM): 29%; inhibition (FGFR2 (human); compound 0.2 µM): 82.6%; inhibition (HCK (human); compound 0.02 µM): 2.6%; inhibition (HCK (human); compound 0.2 µM): 25.1%; inhibition (MAPK1 (human); compound 0.02 µM): -10.8%; inhibition (MAPK1 (human); compound 0.2 µM): -6.6%; inhibition (MAPKAPK3 (human); compound 0.02 µM): 2.3%; inhibition (MAPKAPK3 (human); compound 0.2 µM): 1.6%; inhibition (MARK4 (human); compound 0.02 µM): -4.1%; inhibition (MARK4 (human); compound 0.2 µM): -6.3%; inhibition (MINK1 (human); compound 0.02 µM): 2%; inhibition (MINK1 (human); compound 0.2 µM): 10.8%; inhibition (MST4 (human); compound 0.02 µM): -9.1%; inhibition (MST4 (human); compound 0.2 µM): -4%; inhibition (MUSK (human); compound 0.02 µM): -1.6%; inhibition (MUSK (human); compound 0.2 µM): 0.7%; inhibition (NTRK2 (human); compound 0.02 µM): 5.5%; inhibition (NTRK2 (human); compound 0.2 µM): 14.7%; inhibition (NUAK1 (human); compound 0.02 µM): -7.8%; inhibition (NUAK1 (human); compound 0.2 µM): 42%; inhibition (PDGFRB (human); compound 0.02 µM): 36.7%; inhibition (PDGFRB (human); compound 0.2 µM): 81.4%; inhibition (PRKAA2 (human); compound 0.02 µM): 7%; inhibition (PRKAA2 (human); compound 0.2 µM): -6.6%; inhibition (PRKACG (human); compound 0.02 µM): -6.9%; inhibition (PRKACG (human); compound 0.2 µM): -6.6%; inhibition (PRKCE (human); compound 0.02 µM): 5.8%; inhibition (PRKCE (human); compound 0.2 µM): -8.2%; inhibition (PRKCI (human); compound 0.02 µM): 3.4%; inhibition (PRKCI (human); compound 0.2 µM): 2.1%; inhibition (PRKCZ (human); compound 0.02 µM): 2.5%; inhibition (PRKCZ (human); compound 0.2 µM): -1.1%; inhibition (SIK1 (human); compound 0.02 µM): -3%; inhibition (SIK1 (human); compound 0.2 µM): 0%; inhibition (SPHK2 (human); compound 0.02 µM): 4.3%; inhibition (SPHK2 (human); compound 0.2 µM): -6.2%; inhibition (STK24 (human); compound 0.02 µM): 0.2%; inhibition (STK24 (human); compound 0.2 µM): 3.4%; inhibition (TAB1 (human); compound 0.02 µM): 6.5%; inhibition (TAB1 (human); compound 0.2 µM): 6%

**Q.** With `CNC(=O)c1ccccc1Sc1ccc2c(/C=C/c3ccccn3)n[nH]c2c1` as the compound, how does the inhibition (AURKC (human); compound 0.001 µM) read?
**A.** -2.1%

**Q.** What about the inhibition (AURKC (human); compound 0.02 µM) of the same compound?
**A.** 42.3%

**Q.** And the inhibition (BLK (human); compound 0.001 µM)?
**A.** 0.4%

**Q.** What about the inhibition (BLK (human); compound 0.02 µM) of the same compound?
**A.** -1.6%

**Q.** And the inhibition (CAMK2A (human); compound 0.001 µM)?
**A.** 3.7%

**Q.** What about the inhibition (CAMK2A (human); compound 0.02 µM) of the same compound?
**A.** 3.2%

**Q.** What about the inhibition (CDC42BPB (human); compound 0.001 µM) of the same compound?
**A.** -8.6%

**Q.** What about the inhibition (CDC42BPB (human); compound 0.02 µM) of the same compound?
**A.** 2.9%

**Q.** And the inhibition (CLK2 (human); compound 0.001 µM)?
**A.** -3.8%

**Q.** What about the inhibition (CLK2 (human); compound 0.02 µM) of the same compound?
**A.** 5.8%

**Q.** What about the inhibition (CLK3 (human); compound 0.001 µM) of the same compound?
**A.** 10.3%

**Q.** And the inhibition (CLK3 (human); compound 0.02 µM)?
**A.** -5.1%

**Q.** What about the inhibition (CSNK1D (human); compound 0.001 µM) of the same compound?
**A.** -5.3% and -6.3%

**Q.** And the inhibition (CSNK1D (human); compound 0.02 µM)?
**A.** -5.2% and -5.3%

**Q.** And the inhibition (CSNK2A2 (human); compound 0.001 µM)?
**A.** -3.1%

**Q.** What about the inhibition (CSNK2A2 (human); compound 0.02 µM) of the same compound?
**A.** -5.6%

**Q.** What about the inhibition (DDR1 (human); compound 0.001 µM) of the same compound?
**A.** -7%

**Q.** And the inhibition (DDR1 (human); compound 0.02 µM)?
**A.** 1.9%

**Q.** And the inhibition (DYRK3 (human); compound 0.001 µM)?
**A.** -18.5%

**Q.** What about the inhibition (DYRK3 (human); compound 0.02 µM) of the same compound?
**A.** -6.4%

**Q.** What about the inhibition (EPHA1 (human); compound 0.001 µM) of the same compound?
**A.** -5.6%

**Q.** And the inhibition (EPHA1 (human); compound 0.02 µM)?
**A.** -4.2%

**Q.** What about the inhibition (EPHA8 (human); compound 0.001 µM) of the same compound?
**A.** -5%

**Q.** And the inhibition (EPHA8 (human); compound 0.02 µM)?
**A.** -4.7%

**Q.** What about the inhibition (FGFR2 (human); compound 0.001 µM) of the same compound?
**A.** 10.6%

**Q.** What about the inhibition (FGFR2 (human); compound 0.02 µM) of the same compound?
**A.** 54.1%

**Q.** What about the inhibition (HCK (human); compound 0.02 µM) of the same compound?
**A.** -7.8%

**Q.** What about the inhibition (MAPK1 (human); compound 0.001 µM) of the same compound?
**A.** -5.9%

**Q.** And the inhibition (MAPK1 (human); compound 0.02 µM)?
**A.** -7.2%

**Q.** What about the inhibition (MAPKAPK3 (human); compound 0.001 µM) of the same compound?
**A.** -0.7%

**Q.** What about the inhibition (MAPKAPK3 (human); compound 0.02 µM) of the same compound?
**A.** -5.2%

**Q.** What about the inhibition (MARK4 (human); compound 0.001 µM) of the same compound?
**A.** -14.2%

**Q.** And the inhibition (MARK4 (human); compound 0.02 µM)?
**A.** -4.7%

**Q.** What about the inhibition (MINK1 (human); compound 0.001 µM) of the same compound?
**A.** 0.7%

**Q.** And the inhibition (MINK1 (human); compound 0.02 µM)?
**A.** 0.1%

**Q.** What about the inhibition (MST4 (human); compound 0.001 µM) of the same compound?
**A.** -4.6%

**Q.** What about the inhibition (MST4 (human); compound 0.02 µM) of the same compound?
**A.** -8%

**Q.** And the inhibition (MUSK (human); compound 0.001 µM)?
**A.** -3.1%

**Q.** And the inhibition (MUSK (human); compound 0.02 µM)?
**A.** 4.8%

**Q.** And the inhibition (MYLK2 (human); compound 0.001 µM)?
**A.** -4.8%

**Q.** What about the inhibition (MYLK2 (human); compound 0.02 µM) of the same compound?
**A.** -2.6%

**Q.** What about the inhibition (NTRK2 (human); compound 0.001 µM) of the same compound?
**A.** 5.8%

**Q.** And the inhibition (NTRK2 (human); compound 0.02 µM)?
**A.** 10.5%

**Q.** And the inhibition (NUAK1 (human); compound 0.001 µM)?
**A.** 10.2%

**Q.** And the inhibition (NUAK1 (human); compound 0.02 µM)?
**A.** -1.9%

**Q.** What about the inhibition (PRKAA2 (human); compound 0.001 µM) of the same compound?
**A.** 4.5%

**Q.** And the inhibition (PRKAA2 (human); compound 0.02 µM)?
**A.** 8.8%

**Q.** And the inhibition (PRKACG (human); compound 0.001 µM)?
**A.** -7.2%

**Q.** And the inhibition (PRKACG (human); compound 0.02 µM)?
**A.** -7.8%

**Q.** And the inhibition (PRKCE (human); compound 0.001 µM)?
**A.** 4.4%

**Q.** And the inhibition (PRKCE (human); compound 0.02 µM)?
**A.** -4.2%

**Q.** What about the inhibition (PRKCI (human); compound 0.001 µM) of the same compound?
**A.** 3%

**Q.** What about the inhibition (PRKCI (human); compound 0.02 µM) of the same compound?
**A.** 3.9%

**Q.** And the inhibition (PRKCZ (human); compound 0.001 µM)?
**A.** 12%

**Q.** What about the inhibition (PRKCZ (human); compound 0.02 µM) of the same compound?
**A.** -4.6%

**Q.** What about the inhibition (SIK1 (human); compound 0.001 µM) of the same compound?
**A.** -5.3%

**Q.** What about the inhibition (SIK1 (human); compound 0.02 µM) of the same compound?
**A.** -4.6%

**Q.** What about the inhibition (SPHK2 (human); compound 0.001 µM) of the same compound?
**A.** 2.8%

**Q.** And the inhibition (SPHK2 (human); compound 0.02 µM)?
**A.** -4.8%

**Q.** What about the inhibition (STK24 (human); compound 0.001 µM) of the same compound?
**A.** 2.8%

**Q.** What about the inhibition (STK24 (human); compound 0.02 µM) of the same compound?
**A.** -1.1%

**Q.** What about the inhibition (TAB1 (human); compound 0.001 µM) of the same compound?
**A.** 1.4%

**Q.** And the inhibition (TAB1 (human); compound 0.02 µM)?
**A.** 1.1%
